Results published in patent US9708336B2, “Metallo-beta-lactamase inhibitors” (priority 2014, dated 2017).
pIC50: −log10 of the molar value. Like-named read-outs stand apart in the source and are kept apart here.

Assays:
[1] = target: NDM-1 (Klebsiella pneumoniae, UniProt C7C422); assay: biochemical; assay type: biochemical; settings: read-out: NDM-1 IC50
[2] = test system: Klebsiella pneumoniae expressing VIM-1 (IHMA599644); assay: Antibiotic potentiation activity: synergistic concentration (MITC95) with imipenem, OD600 growth; assay type: cell-based; settings: for Klebsiella pneumoniae expressing VIM-1 (IHMA 599644) MITC95: concentration giving 95% inhibition of bacterial growth; for Klebsiella pneumoniae MITC95: Klebsiella pneumoniae expressing VIM-1 (IHMA599644), 95% growth inhibition
In short: (§1)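 Growth after 22–24 h at 35 °C is measured spectrophotometrically for bacteria incubated with compound plus imipenem (4 μg/ml in-well, or 1 μg/ml). Cells come from overnight agar colonies resuspended in saline and diluted 1:100 in 1.1× CAMHB.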

[3] = test system: Serratia marcescens expressing IMP-1 (CL5741); assay: as above; assay type: cell-based; settings: for Serratia marcescens expressing IMP-1 (CL5741) MITC95: concentration giving 95% inhibition of bacterial growth; for Serratia marcescens MITC95: Serratia marcescens expressing IMP-1 (CL5741), 95% growth inhibition
In short: as §1

[4] = test system: Escherichia coli expressing NDM-1 (CLB30005); assay: as above; assay type: cell-based; settings: for Escherichia coli expressing NDM-1 (CLB 30005) MITC95: concentration giving 95% inhibition of bacterial growth; for Escherichia coli MITC95: Escherichia coli expressing NDM-1 (CLB30005), 95% growth inhibition
In short: as §1

[5] = target: VIM-1 (Pseudomonas aeruginosa (strain ATCC 15692 / DSM 22644 / CIP 104116 / JCM 14847 / LMG 12228 / 1C / PRS 101 / PAO1), UniProt A0A0F7KYQ8); assay: Enzyme activity: determination of IC50, fluorescence assay with CCF2-FA substrate (VIM-1); assay type: biochemical
[6] = target: IMP-1 (Serratia marcescens, UniProt P52699); assay: biochemical; assay type: biochemical; settings: read-out: IMP-1 IC50
[7] = fluorescence assay with CCF2-FA substrate
[8] = VIM-1 IC50, fluorescence assay with CCF2-FA substrate
[9] = fluorescence assay with CCF2-FA substrate, read-out: VIM-1 IC50
[10] = NDM-1 enzyme, CCF2-FA fluorescence assay
[11] = VIM-1 enzyme, CCF2-FA fluorescence assay, read-out: VIM-1 IC50
[12] = IMP-1 enzyme, CCF2-FA fluorescence assay

IMP-1, sequence (P52699 whole entry, looked up): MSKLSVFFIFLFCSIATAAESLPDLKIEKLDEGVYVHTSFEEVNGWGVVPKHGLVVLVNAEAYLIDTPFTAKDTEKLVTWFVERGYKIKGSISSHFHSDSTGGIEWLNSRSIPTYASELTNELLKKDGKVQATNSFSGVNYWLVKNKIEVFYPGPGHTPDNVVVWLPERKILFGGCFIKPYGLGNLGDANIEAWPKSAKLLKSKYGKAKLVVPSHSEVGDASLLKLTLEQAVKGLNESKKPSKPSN
NDM-1, sequence (C7C422 whole entry, looked up, species assumed): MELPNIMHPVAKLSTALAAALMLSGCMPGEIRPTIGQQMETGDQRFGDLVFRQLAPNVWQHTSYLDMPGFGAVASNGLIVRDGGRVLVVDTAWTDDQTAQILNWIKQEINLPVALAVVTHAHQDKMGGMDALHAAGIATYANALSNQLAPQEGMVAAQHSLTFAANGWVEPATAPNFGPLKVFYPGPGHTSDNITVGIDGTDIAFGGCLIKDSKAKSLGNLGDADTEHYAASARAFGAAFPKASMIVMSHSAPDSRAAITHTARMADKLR

SMILES	pIC50 [1, 7]	Klebsiella pneumoniae expressing VIM-1 (IHMA 599644) MITC95 [2] [µM]	Serratia marcescens expressing IMP-1 (CL5741) MITC95 [3] [µM]	Escherichia coli expressing NDM-1 (CLB 30005) MITC95 [4] [µM]	pIC50 [5, 8]	pIC50 [6, 7]	pIC50 [5, 9]	pIC50 [1, 10]	Klebsiella pneumoniae MITC95 [2] [µM]	Serratia marcescens MITC95 [3] [µM]	Escherichia coli MITC95 [4] [µM]	pIC50 [5, 11]	pIC50 [6, 12]
CCOC(=O)N1CCC(c2cccc(S(N)(=O)=O)c2-c2nn[nH]n2)CC1 [Example 173, ethyl 4-(3-sulfamoyl-2-(2H-tetrazol-5-yl)phenyl)piperidine-1-carboxylate]	8.36	>200	6.25	4.688	7.07	6.83	–	–	–	–	–	–	–
NC(=O)c1ccc(-c2ccnc(S(N)(=O)=O)c2-c2nnn[nH]2)cc1 [Example 184, 4-(2-Sulfamoyl-3-(1H-tetrazol-5-yl)pyridin-4-yl)benzamide]	7.17	25	37.5	0.5859	–	6.22	6.79	–	–	–	–	–	–
NS(=O)(=O)c1cccc(-c2ccc(F)nc2)c1-c1nn[nH]n1 [Example 48, 3-(6-fluoropyridin-3-yl)-2-(2H-tetrazol-5-yl)benzenesulfonamide]	7.72	66.67	33.33	0.3906	–	6.19	6.74	–	–	–	–	–	–
CN(c1ncc(-c2cccc(S(N)(=O)=O)c2-c2nn[nH]n2)cn1)S(C)(=O)=O [Example 55, 3-{2-[methyl(methylsulfonyl)amino]pyrimidin-5-yl}-2-(2H-tetrazol-5-yl)benzenesulfonamide]	8.46	200	12.5	1.953	–	7.28	6.84	–	–	–	–	–	–
NS(=O)(=O)c1nccc(-c2ccc3ncccc3c2)c1-c1nn[nH]n1 [Example 200, 4-(quinolin-6-yl)-3-(2H-tetrazol-5-yl)pyridine-2-sulfonamide]	7.52	50	75	2.083	–	6.02	7.45	–	–	–	–	–	–
NC(=O)Cc1ccc(-c2cccc(S(N)(=O)=O)c2-c2nnn[nH]2)cc1 [Example 303, 2-(3′-sulfamoyl-2′-(1H-tetrazol-5-yl)-[1,1′-biphenyl]-4-yl)acetamide]	–	–	–	–	–	–	–	8.30	18.75	2.344	0.9766	7.35	7.23
NS(=O)(=O)c1cccc(-c2ccc(C(=O)N3CCC(O)CC3)cc2)c1-c1nn[nH]n1 [Example 52, 4′-[(4-hydroxypiperidin-1-yl)carbonyl]-2-(2H-tetrazol-5-yl)biphenyl-3-sulfonamide]	8.77	100	6.25	1.563	–	7.75	7.01	–	–	–	–	–	–
NS(=O)(=O)c1cccc(-c2ccc3[nH]c(=O)[nH]c3c2)c1-c1nn[nH]n1 [Example 84, 3-(2-oxo-2,3-dihydro-1H-benzimidazol-5-yl)-2-(2H-tetrazol-5-yl)benzenesulfonamide]	8.51	6.25	50	0.7813	–	6.15	7.64	–	–	–	–	–	–
NS(=O)(=O)c1nccc(-c2ccc3c(c2)CC(=O)N3)c1-c1nn[nH]n1 [Example 201, 4-(2-oxoindolin-5-yl)-3-(2H-tetrazol-5-yl)pyridine-2-sulfonamide]	7.18	18.75	50	0.7813	7.17	5.84	–	–	–	–	–	–	–
NS(=O)(=O)c1nccc(-c2ccc3c(c2)CNC3=O)c1-c1nnn[nH]1 [Example 192, 4-(1-oxoisoindolin-5-yl)-3-(1H-tetrazol-5-yl)pyridine-2-sulfonamide]	7.44	50	50	1.953	–	6.36	7.01	–	–	–	–	–	–
Cc1nccn1-c1nc(-c2cccc(S(N)(=O)=O)c2-c2nn[nH]n2)cs1 [Example 102, 3-[2-(2-methyl-1H-imidazol-1-yl)-1,3-thiazol-4-yl]-2-(2H-tetrazol-5-yl)benzenesulfonamide]	6.89	>200	53.13	9.375	–	6.76	6.28	–	–	–	–	–	–
NS(=O)(=O)c1cccc(-c2c[nH]c3nccnc23)c1-c1nn[nH]n1 [Example 104, 3-(5H-pyrrolo[2,3-b]pyrazin-7-yl)-2-(2H-tetrazol-5-yl)benzenesulfonamide]	7.78	25	15.63	0.9766	–	6.54	6.97	–	–	–	–	–	–
NS(=O)(=O)c1cccc(-c2cnn(Cc3ccccn3)c2)c1-c1nn[nH]n1 [Example 101, 3-[1-(pyridin-2-ylmethyl)-1H-pyrazol-4-yl]-2-(2H-tetrazol-5-yl)benzenesulfonamide]	7.39	125	14.06	3.906	–	6.29	6.95	–	–	–	–	–	–
COC(=O)N1CCC(c2ccc(-c3cccc(S(N)(=O)=O)c3-c3nnn[nH]3)cc2)CC1 [Example 28, methyl 4-[3′-sulfamoyl-2′-(1H-tetrazol-5-yl)biphenyl-4-yl]piperidine-1-carboxylate]	9.01	>200	12.5	12.5	–	8.43	7.57	–	–	–	–	–	–
NC(=O)c1ccc(-c2cccc(S(N)(=O)=O)c2-c2nn[nH]n2)cc1 [Example 15, 3′-sulfamoyl-2′-(2H-tetrazol-5-yl)biphenyl-4-carboxamide]	8.22	18.75	15.63	0.3906	–	6.87	7.21	–	–	–	–	–	–
NS(=O)(=O)c1cccc(-c2ccc(-c3nnn[nH]3)cc2)c1-c1nn[nH]n1 [Example 72, 4′-(1H-tetrazol-5-yl)-2-(2H-tetrazol-5-yl)biphenyl-3-sulfonamide]	9.20	25	12.5	2.344	–	7.31	7.65	–	–	–	–	–	–
Cc1ccc(-c2cccc(S(N)(=O)=O)c2-c2nnn[nH]2)nc1 [Example 398, 3-(5-Methylpyridin-2-yl)-2-(1H-tetrazol-5-yl)benzenesulfonamide]	–	–	–	–	–	–	–	7.37	100	50	1.563	6.51	5.92
